Consider 1 molecule from US20070081978A1, “Adeno-associated virus-mediated survivin mutants and methods related thereto” (priority 2005, published 2007).

Series [1] has as its system SW1116 cells. Description: Drug-induced apoptosis by FACS analysis (Table 1). The class given is cell-based, Human. The note with it: rAAV 1×10^5 viral particle/cell, or followed by 10 μg/ml 5-fluorouracil for 72 hour; mean ± SEM. On the procedure:
Cells were collected and fixed in ice-cold 70% ethanol in PBS and stored at −20° C. before use. After re-suspension, cells were washed and incubated with 100 μl of RNase I (1 mg/ml) and 100 μl of propidium iodide (400 μg/ml; Sigma) at 37° C. for 30 min. Samples were analyzed by flow cytometry (Coulter, Luton). The cell-cycle phase distribution was calculated from the resultant DNA histogram using Multicycle AV software (Phoenix Flow Systems, San Diego, Calif.). Cells with subdiploid DNA content were scored as apoptotic.

In series [2] the test system is SW1116 cells. Description: Intratumoral rAAV gene therapy in colon cancer xenograft model: tumor growth. The series is classed as in vivo, BALB/c nude mice. The note with it: rAAV 5×10^10 particles/site, 3 sites; 5-FU i.p. 50 mg/kg on each of 5 days. On the procedure: rAAV-Sur-Mut(Cys84Ala) inhibited tumor growth. (A) Untreated SW1116 cell were subcutaneously injected into the right flank of athymic female nude mice. Tumors were allowed to grow to approximately 100-150 mm^3 volume. Masses were injected in three sites with rAAV-Sur-Mut(Cys84Ala), rAAV-eGFP or rAAV-Sur(wt) at 5×10^10 viral particles/site of injection, or with PBS. Photographs were taken from representative mice 4 weeks after treatment. (B) Tumor growth was measured every week after injection. Data are the means±SEM of tumor size per mouse. (C) Tissue sections of formalin-fixed, paraffin-embedded xenograft tumors were stained by H&E, immunohistochemical stained for survivin or TUNEL stained for detection of apoptotic cells. Images were representative fields of view from tumors 5 days after treatment. (Original magnification ×200)
(§1) Five- to six-week-old female BALB/c nude mice were injected subcutaneously on the flanks with 2×10^6 exponentially growing SW1116 cells. Tumors were allowed to grow to 100˜150 mm^3 (5˜7 mm diameter). For local administration of rAAV, masses were injected in three sites with rAAV-Sur-Mut(Cys84Ala), rAAV-Sur(wt) or rAAV-EGFP at 5×10^10 viral particles/site of injection, or at each of the three site with PBS. Alternatively, mice were i.p. injected with 50 mg/kg 5-fluorouracil daily for 5 days, or a combination of rAAV virus and 5-Fluorouracil. Tumor growth was measured weekly after injection. In other experiments, mice received an injection of uninfected exponentially growing 2×10^6 SW1116 cells. After 7 days, mice were given an injection of same dosage of rAAV virus and 5-FU (3 animals/group). After 5 days, animals were euthanized, and their total tumor burden was excised, fixed and embedded in paraffin blocks for H&E, TUNEL and immunohistochemical staining, or tumors were snap-frozen in liquid nitrogen for CD31 staining.

Series [3] has as its system SW1116 cells. Description: Survival of xenograft-bearing mice. The class given is in vivo, BALB/c nude mice. On the procedure:
rAAV-Sur-Mut(Cys84Ala) prolonged the survival of mice. (A) Masses were injected in three sites with rAAV-Sur-Mut(Cys84Ala), rAAV-Sur(wt) and rAAV-eGFP at 5×10^10 viral particles/site of injection, or in combination with 5-Fluorouracil for 5 days. Tumor xenografts were collected and tissue sections of formalin-fixed, paraffin-embedded xenograft were TUNEL stained for apoptosis. (B) Survival curve. The experimental conditions were as in (A) Survival was monitored every day, and tumor volume was measured every week after treatment. Definition of death is natural death due to tumor burden or killing due to tumor sizes (diameter) more than 2.5 cm.
as §1, with “After 7 days, mice were given an injection of same dosage of rAAV virus and 5-FU (3 animals/group). After 5 days, animals were euthanized, and their total tumor burden was excised, fixed and embedded in paraffin blocks for H&E, TUNEL and immunohistochemical staining, or tumors were snap-frozen in liquid nitrogen for CD31 staining.” left out

For `O=c1[nH]cc(F)c(=O)[nH]1` [5-FU, 5-fluorouracil], the “% Apoptosis” value in the series with SW1116 cells [1] is reported as 26.0 ± 3.4%. Moreover, in the series on SW1116 cells [2], the “Number of mice with tumor regression” value is 0/4, the Rate of inhibition was determined as 61.2% and the Tumor size turned out to be 606.3 ± 106.7 mm^3. The “survival (comparison in words)” value with SW1116 cells [3] (mouse, in vivo) is recorded as “survived significantly longer than buffer-treated mice”. In addition, in the series with SW1116 cells [3] (tumor-bearing mice), the clinical symptoms result is “developed severe symptoms related to tumor growth”.
